Experiment [1] concerns the target T1, human AOC3 enzyme (recombinant CHO cells) (Homo sapiens, UniProt Q16853).
T1 construct: expressed in transfected cells; host or cells: CHO cells
T1 sequence (Q16853 1-763): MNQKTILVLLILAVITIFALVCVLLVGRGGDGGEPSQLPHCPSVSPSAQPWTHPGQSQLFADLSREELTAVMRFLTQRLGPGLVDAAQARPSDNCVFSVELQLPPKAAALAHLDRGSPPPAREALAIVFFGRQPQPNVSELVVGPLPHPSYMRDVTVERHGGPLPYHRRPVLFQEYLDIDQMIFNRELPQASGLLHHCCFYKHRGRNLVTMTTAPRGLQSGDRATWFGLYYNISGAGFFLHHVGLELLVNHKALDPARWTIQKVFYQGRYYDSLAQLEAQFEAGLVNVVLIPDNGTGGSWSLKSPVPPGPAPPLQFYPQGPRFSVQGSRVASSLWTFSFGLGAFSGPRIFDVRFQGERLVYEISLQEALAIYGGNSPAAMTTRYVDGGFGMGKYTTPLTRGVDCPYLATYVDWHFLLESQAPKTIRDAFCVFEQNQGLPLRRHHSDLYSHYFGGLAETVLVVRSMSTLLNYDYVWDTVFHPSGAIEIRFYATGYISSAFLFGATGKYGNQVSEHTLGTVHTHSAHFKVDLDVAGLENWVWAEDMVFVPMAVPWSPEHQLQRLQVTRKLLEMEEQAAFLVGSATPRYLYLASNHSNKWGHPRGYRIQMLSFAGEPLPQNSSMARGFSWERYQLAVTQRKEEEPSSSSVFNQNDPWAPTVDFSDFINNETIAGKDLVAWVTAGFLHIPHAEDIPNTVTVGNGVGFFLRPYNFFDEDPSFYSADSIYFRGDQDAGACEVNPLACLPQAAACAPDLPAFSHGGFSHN
Nature of the experiment: AOC3 biochemical assay (MAO-Glo), human enzyme. An excerpt:
(§1) The MAO-Glo™ Assay (commercially available from PROMEGA, #V1402) provides a sensitive method for the measurement of monoamine oxidase (MAO) activity (Valley, M. P. et al., 2006, Anal. Biochem. 359: 238-246) from a variety of tissues, biofluids or recombinant expressed or purified enzymes. As substrate a derivate of the beetle luciferin ((4S)-4,5-dihydro-2-(6-hydroxybenzothiazolyl)-4-thiazole-carboxylic acid) is used, which is oxidized at a primary amine moiety. After a spontaneous elimination and a catalyzed esterase reaction, the turnover of luciferin by the luciferase is recorded as a signal of AOC3 activity.
An aliquot of 3 μL of the compound dilution is added to a 384 well plate (Optiplate, PS, flat bottom, white, PERKIN ELMER, #6007290) with a final DMSO concentration of 6.6%. Recombinant CHO cells, overexpressing the human (1500 cells/well), mouse (1000 cells/well) or rat (500 cells/well) AOC3 enzyme are diluted in reaction buffer and added in a volume of 15 μL to the wells. After incubation for 20 minutes at 37° C., 2 μL of MAO substrate (dissolved in DMSO at 16 mM, adjusted to assay concentration in reaction buffer to a final assay concentration of 20 μM) is added and further incubated for 60 minutes at 37° C. The turnover of the substrate is determined by the addition of 20 μL of the detection-mix which was generated by the addition of reconstitution buffer with esterase (PROMEGA, #V1402) to the luciferin detection reagent (PROMEGA, #V1402). After an incubation period of 20 minutes, the luminescent signal is measured with Envision 2104 Multilabel Reader (PERKIN ELMER).

Another experiment has as its target T2, MAO-A (Homo sapiens, UniProt P21397).
T2 construct: purchased Sigma-Aldrich M7316
T2 sequence (P21397 1-527): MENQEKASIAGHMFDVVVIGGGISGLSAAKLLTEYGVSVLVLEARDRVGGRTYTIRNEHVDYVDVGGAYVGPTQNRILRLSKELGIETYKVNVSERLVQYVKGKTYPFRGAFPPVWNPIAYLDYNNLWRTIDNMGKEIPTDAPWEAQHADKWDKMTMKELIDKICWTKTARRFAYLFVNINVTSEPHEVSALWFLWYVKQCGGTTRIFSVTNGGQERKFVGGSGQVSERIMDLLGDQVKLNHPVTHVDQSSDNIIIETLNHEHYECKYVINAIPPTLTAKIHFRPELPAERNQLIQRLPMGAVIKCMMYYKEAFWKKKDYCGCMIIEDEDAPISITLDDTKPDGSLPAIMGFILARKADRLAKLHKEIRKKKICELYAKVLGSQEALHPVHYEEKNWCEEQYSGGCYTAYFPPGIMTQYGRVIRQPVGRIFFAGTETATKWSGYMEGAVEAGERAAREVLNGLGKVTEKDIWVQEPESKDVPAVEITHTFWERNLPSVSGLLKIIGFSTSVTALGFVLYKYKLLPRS
Briefly: MAO-A biochemical assay (MAO-Glo).
Text: as §1, with “MAO-A” for “AOC3”
An aliquot of 3 μL of the compound dilution is added to a 384 well plate (Optiplate, PS, flat bottom F, black, PERKIN ELMER, #6007270) in a DMSO concentration of 1.025%.
A MAO-A enzyme aliquot (M7316, Sigma-Aldrich) is thawed on ice, diluted in reaction buffer to 1.25 mU/μL and added in a volume of 5 μL to the wells. After incubation for 20 minutes at 37° C., 2 μL of MAO substrate (dissolved in DMSO at 16 mM, diluted to 20 μM in assay buffer to obtain a final assay concentration of 4 μM) is added, mixed, and the mixture further incubated for 60 minutes at 37° C.
The turnover of the substrate is determined by the addition of 10 μL of the Detection Reagent mix which was generated by the addition of reconstitution buffer with esterase (PROMEGA, #V1402) to the luciferin detection reagent (PROMEGA, #V1402). After an incubation period of 20 minutes at 37° C., the luminescent signal is measured with a […], e.g. Envision 2104 Multilabel Reader (PERKIN ELMER).

Where [2] appears, read: comparison table, read-out: IC50 AOC3.
The mark [3] stands for this setting: comparison table, read-out: IC50 MAO-A.

Where a name gives a salt, the structure may show the parent alone. Read-outs that look alike come from different tables or passages of the source. Where only a bound is given, the exact number is not on record here.

Consider `COC(=O)[C@H]1[C@@H]2CN(S(=O)(=O)c3ccc(OC/C(=C\F)CN)nc3)C[C@@H]21` [Example 35, trans-3-[6-((Z)-2-Aminomethyl-3-fluoro-allyloxy)-pyridine-3-sulfonyl]-3-aza-bicyclo[3.1.0]hexane-6-carboxylic acid methyl ester trifluoroacetate], for which the IC50 in experiment [1] (read-out: AOC3 IC50) is 3 nM; on MAO-A (IC50, read-out: MAO-A) it was over 50000 nM.

As for `NC/C(=C/F)COc1ccc(S(=O)(=O)N2CCC[C@@H]2C(N)=O)cn1` [Example 18], the IC50 in experiment [1] (read-out: AOC3 IC50) was 50 nM; at MAO-A (IC50, read-out: MAO-A) it was over 50000 nM.

`COC(=O)CC1CCN(S(=O)(=O)c2ccc(OC/C(=C\F)CN)nc2)CC1` [Example 32]: the IC50 was found to be 4 nM in experiment [1] (read-out: AOC3 IC50) and 38600 nM at MAO-A (IC50, read-out: MAO-A).

In the case of `NC/C(=C/F)COc1ccc(S(=O)(=O)N2C[C@H]3C[C@@]3(C(=O)N3CCOCC3)C2)cn1` [Example 22], the IC50 in experiment [1] (read-out: AOC3 IC50) is 35 nM; on MAO-A (IC50, read-out: MAO-A), over 50000 nM.

In the case of `NC/C(=C/F)COc1ccc(S(=O)(=O)N2CCC(C(=O)O)CC2)cn1` [Example 46], the IC50 in experiment [1] (read-out: AOC3 IC50) was 493 nM; on MAO-A (IC50, read-out: MAO-A) it was over 50000 nM.

With `NC/C(=C/F)COc1ccc(S(=O)(=O)N2CC(C3CCN(C(=O)C4CC4)CC3)C2)cn1` [Example 26], the IC50 in experiment [1] (read-out: AOC3 IC50) is 9 nM; on MAO-A (IC50, read-out: MAO-A), over 50000 nM.

In the case of `CN(C)C(=O)C1CCN(S(=O)(=O)c2ccc(OC/C(=C\F)CN)nc2)CC1` [Example 17], the IC50 in experiment [1] (read-out: AOC3 IC50) was 16 nM; on MAO-A (IC50, read-out: MAO-A), over 50000 nM.

`CC(=O)N1CC(C2CCN(S(=O)(=O)c3ccc(OC/C(=C\F)CN)nc3)CC2)C1` [Example 9]: the IC50 in experiment [1] (read-out: AOC3 IC50) was 15 nM; on MAO-A (IC50, read-out: MAO-A), over 50000 nM.

In the case of `COC1CN(S(=O)(=O)c2ccc(OC/C(=C\F)CN)cc2)C1` [Reference compound A, reference compound], the IC50 in experiment [1] (setting [2]) came to 3 nM; at MAO-A (setting [3]) it was 2350 nM.

Turning to `COC1CCN(S(=O)(=O)c2ccc(OC/C(=C\F)CN)nc2)CC1` [Example 40], the IC50 is 4 nM in experiment [1] (read-out: AOC3 IC50) and over 50000 nM on MAO-A (IC50, read-out: MAO-A).

On to `CN1CCN(C2CCN(S(=O)(=O)c3ccc(OC/C(=C\F)CN)nc3)CC2)C1=O` [Example 1, 1-{1-[6-((Z)-2-Aminomethyl-3-fluoro-allyloxy)-pyridine-3-sulfonyl]-piperidine-4-yl}-3-methyl-imidazolidin-2-one trifluoroacetate], for which the IC50 in experiment [1] (read-out: AOC3 IC50) is 7 nM; on MAO-A (IC50, read-out: MAO-A), over 50000 nM.

Take `CNC(=O)[C@@H]1[C@@H]2CN(S(=O)(=O)c3ccc(OC/C(=C\F)CN)nc3)C[C@@H]21` [Example 5]: the IC50 in experiment [1] (read-out: AOC3 IC50) is 27 nM; on MAO-A (IC50, read-out: MAO-A) it was over 50000 nM.

Consider `CC1(C(N)=O)CCN(S(=O)(=O)c2ccc(OC/C(=C\F)CN)nc2)CC1` [Example 49], for which the IC50 in experiment [1] (read-out: AOC3 IC50) was 8 nM; at MAO-A (IC50, read-out: MAO-A) it was over 50000 nM.

Consider `COC(=O)C1(C)CCN(S(=O)(=O)c2ccc(OC/C(=C\F)CN)nc2)CC1` [Example 36], for which the IC50 in experiment [1] (read-out: AOC3 IC50) is 4 nM; on MAO-A (IC50, read-out: MAO-A), 13500 nM.

For `NC/C(=C/F)COc1ccc(S(=O)(=O)N2CCCCC2)cn1` [Example 38], the IC50 in experiment [1] (read-out: AOC3 IC50) is 3 nM; on MAO-A (IC50, read-out: MAO-A), 32300 nM.

Regarding `CC1(C(=O)NC2CC2)CCN(S(=O)(=O)c2ccc(OC/C(=C\F)CN)nc2)CC1` [Example 56], the IC50 in experiment [1] (read-out: AOC3 IC50) was 21 nM; on MAO-A (IC50, read-out: MAO-A) it was over 50000 nM.

Turning to `CN(C)C(=O)[C@H]1CCN(S(=O)(=O)c2ccc(OC/C(=C\F)CN)nc2)C1` [Example 4], the IC50 in experiment [1] (read-out: AOC3 IC50) was 23 nM; on MAO-A (IC50, read-out: MAO-A) it was over 50000 nM.

Turning to `NC/C(=C/F)COc1cnc(N2CCC(O)CC2)nc1` [reference compound], the figures for the IC50 (in experiment [1] (setting [2]); at MAO-A (setting [3])) were 4 nM and 54900 nM, respectively.

For `NC/C(=C/F)COc1ccc(S(=O)(=O)N2CCC(C(=O)N3CCC3)CC2)cn1` [Example 10], the IC50 in experiment [1] (read-out: AOC3 IC50) was 22 nM; at MAO-A (IC50, read-out: MAO-A), over 50000 nM.

Regarding `NC/C(=C/F)COc1cnc(N2CC[C@H](O)C2)nc1` [Z isomer of example 6 of WO 2018/027892, reference compound], the IC50 in experiment [1] (setting [2]) came out at 7 nM; on MAO-A (setting [3]) it was 56300 nM.

These data come from patent US12213970B2, “Pyridinyl sulfonamide derivatives, pharmaceutical compositions and uses thereof” (Boehringer Ingelheim International GmbH, priority 2018, dated 2025).
